From US5442111A, “3,5-di-tetriary-4-butyl-4-hydroxyphenyloxy- or tioalkylene N-hydroxyamides, N-hydroxythioamides, N-hydroxyureas, and N-hydroxythioureas as 5-lipoxygenase inhibitors” (Warner-Lambert Company, priority 1991, dated 1995)

Tested on: 5-lipoxygenase
Assay: ARBL whole cell 5-lipoxygenase assay (LTB4 formation in RBL-1 cells stimulated with calcium ionophore A23187, RIA)
Assay type: cell-based
Conditions: @ 10^-6 (concentration unit not given); rat RBL-1 whole cells, A23187 5 μM, 10 min preincubation
Protocol: ARBL WHOLE CELL 5-LIPOXYGENASE ASSAY
The rat basophilic leukemia cell line (RBL-1) was obtained from the American Type Culture Collection (Rockville, Md.).
A radioimmunoassay (RIA) kit of LTB was obtained from Amersham (Arlington Heights, Ill.) and Seragen (Boston, Mass.), respectively.
RBL-1 cells are grown in suspension culture in Eagle's minimum essential medium supplemented with 12% fetal bovine serum at 37° C. in an incubator supplied with air-5% carbon dioxide. Cells are harvested by centrifugation. They are washed with cold phosphate buffered saline pH 7.4 (PBS; NaCl, 7.1 g; NaHPO, 1.15 g; KHPO, 0.2 g; and KCl, 0.2 g/l). Cells are finally suspended in PBS containing 1.0 mM calcium at a density of […] cells/ml. Cells are incubated with and without test agent (in DMSO) (1% DMSO is without effect on arachidonic acid metabolism) for ten minutes at room temperature. Calcium ionophore A23187 (5 μM) is added and cells are incubated for seven minutes at 37° C. The reaction is stopped by chilling the tubes on ice for ten minutes. Cells are separated by centrifugation and the supernatant is stored at -20°. Aliquots (100 μl) are analyzed for LTB using the radioimmunoassay kit as provided by the supplier.
The following table contains biochemical data obtained from this whole cell assay as a percentage of inhibition.

`CNC(=S)N(O)C(C)CSc1cc(C(C)(C)C)c(O)c(C(C)(C)C)c1` (centres unmarked) [Example 1, N-[2-[[3,5-Bis(1,1-dimethylethyl)-4-hydroxyphenyl]thio]-1-methylethyl]-N-hydroxy-N'-methyl Thiourea] was tested, and the “ARBL @ 10^-6, % inhibition for LTB4” value was 100%.
For `CC(CSc1cc(C(C)(C)C)c(O)c(C(C)(C)C)c1)N(O)C(N)=O` (centres unmarked) [Example 2, N-[2-[[3,5-Bis(1,1-dimethylethyl)-4-hydroxyphenyl]thio]-1-methylethyl]-N-hydroxy Urea], the “ARBL @ 10^-6, % inhibition for LTB4” value was 100%.
